Measurements as given in patent EP0008269A1, “Medicines containing as active ingredients compounds of the benzene-sulfone type; compounds of this type and process for their preparation” (CHOAY S.A., priority 1978, dated 1980).

Experiments:
fibrillation = experiment: Antifibrillant activity: chloroform-induced cardiac fibrillation in mice; assay type: in vivo, souris; conditions: 100 mg/kg i.p., 15 min before chloroform exposure
Experimental: Pour ces essais, on utilise comme précédemment des lots de 10 souris auxquelles sont administrés, par voie intrapéritonéale, 0,5 ml d'une solution ou suspension de substance étudiée dans du soluté isotonique.
Les souris sont traitées suivant une méthode voisine de celle décrite par B. Vargaftig et J.L. Coignet (Eur. J. Pharmacol., 1969, 6, 49). Selon cette méthode, les souris sont soumises à une atmosphère chargée d'une quantité déterminée de chloroforme. Lorsque les mouvements respiratoires cessent, le thorax est ouvert et le coeur examiné pour l'observation des tremblements superficiels très rapides. La fibrillation est positive lorsque ces mouvements sont observés pendant plus de 5 secondes.
La substance étudiée est administrée à raison de 100 mg/kg 15 minutes avant l'exposition au chloroforme.
La protection observée pour les substances des exemples 22 et 27 est d'environ 30 %.

vomissements = experiment: Antiemetic activity: apomorphine-induced vomiting in dogs; assay type: in vivo, chiens Beagle; conditions: 1 mg/kg intramuscular, 30 min before apomorphine 0,1 mg/kg s.c., vomiting counted for the next half hour
Experimental: Les essais sont effectués sur des chiens Beagle adultes de 8 à 12 kg, qui sont mis à jeun pendant 24 heures.
Chaque animal est son propre témoin, un essai sans protection étant réalisé 8 jours avant l'essai proprement dit en présence de la substance étudiée.
Les substances étudiées sont administrées dans du soluté isotonique à raison de 1 mg/kg et par voie intramusculaire. 30 minutes après, on injecte l'apomorphine par voie sous-cutanée, à raison de 0,1 mg/kg., et l'on dénombre les vomissements dans la demi-heure suivante.
Dans ces conditions, on a observé, pour les substances des exemples 22, 24, 26 et 27, une réduction du nombre de vomissements qui est respectivement de 50,8 %, 28,2 %, 44,2 %, 47,6 %.

[1] = test system: cellules de la Lignée L.1210; experiment: Cytostatic activity: growth inhibition of L.1210 cells; assay type: cell-based; conditions: L.1210 cells in culture
Experimental: Cette activité est étudiée en mesurant le pouvoir d'in- hibition de la croissance de cellules de la Lignée L.1210 cultivée sur un milieu approprié.
Ce pouvoir est exprimé en poids de produit par 10^5 cellules inhibant de 50 % la croissance cellulaire.
Pour la substance de l'exemple 5, ce poids est de 6 µg/10^5 cellules, pour celle de l'exemple 7, il est de 4 µg/10^5 cellules.

facteurs de coagulation = experiment: Activity on coagulation factors: thrombo-elastography on blood samples (terms r and k)
Description: L'étude est faite par thrombo-élastographie sur des échantillons sanguins auxquels sont ajoutées des quantités dosées des substances actives selon l'invention.
La mesure des termes r (temps d'apparition de la fibrine pendant lequel la viscosité ne varie pas) et k (temps d'accroissement de la viscosité jusqu'à une valeur donnée) montre, pour les échantillons traités à l'aide de la substance de l'exemple 7, une augmentation de 32 % pour 10/ug/ml et de 45 % pour 100/ug/ml.

[2] = test system: ulcères provoqués par immobilisation; experiment: Antiulcer activity: restraint (immobilisation) ulcer in rats; assay type: in vivo; conditions: rat, 10 mg/kg i.p., compared with controls
Experimental: Elle est déterminée sur les ulcères provoqués par immobilisation chez le rat. La méthode de mesure est celle décrite par G. Narcisse (Thérapie, 1972, 27, 705). La substance est administrée par voie intrapéritonéale, à raison de 10 mg/kg.
Par comparaison avec des témoins, le pourcentage de protection, dans le cas du produit de l'exemple 22, est de 61,3 %.

Row | SMILES | protection (fibrillation) (fibrillation) | réduction du nombre de vomissements (vomissements) | poids de produit par 10^5 cellules inhibant de 50 % la croissance cellulaire [1] | further results
1 | COc1ccc(Cl)cc1S(=O)(=O)CCCN1CCCCC1 [Exemple 27] | ~30% | 47,6% |  | 
2 | COc1ccc(Cl)cc1S(=O)(=O)CCN1CCCCC1 [Exemple 24] |  | 28,2% |  | 
3 | COc1ccccc1S(=O)(=O)CCCl [Exemple 5] |  |  | 6 µg/10^5 cellules | 
4 | COc1ccc(Cl)cc1S(=O)(=O)CCCl [Exemple 7] |  |  | 4 µg/10^5 cellules | augmentation des termes r et k (facteurs de coagulation; 10/ug/ml added to blood samples): 32%; augmentation des termes r et k (facteurs de coagulation; 100/ug/ml added to blood samples): 45%
5 | COc1ccc(Cl)cc1S(=O)(=O)CCN1CCOCC1 [Exemple 22] | ~30% | 50,8% |  | pourcentage de protection [2]: 61,3%
6 | COc1ccc(Cl)cc1S(=O)(=O)CCCN1CCCC1 [Exemple 26] |  | 44,2% |  | 
